Values of other authors, collected in patent US20060089319A1, “Method for treatment and prevention of bacterial vaginosis” (priority 2004, published 2006).

Test system: bacterial vaginosis

Cc1ncc([N+](=O)[O-])n1CCO [metronidazole]
hospital admissions for preterm labor, preterm births, PROM, and low-birth-weight infants (oral, high-risk women with previous preterm delivery, double-blind study by Morales et al.): fewer
long-term suppression of bacterial vaginosis flora (duration) (oral, pregnant women, two separate studies): 2-3 months
treatment of bacterial vaginosis in pregnant women, thereby preventing preterm delivery (pregnant women, numerous studies): effective treatment
